One compound from patent US8293979B2, “Weed controller metabolism proteins, genes, thereof and use of the same” (Sumitomo Chemical Company, Limited, priority 2001, dated 2012) can be followed below.

SMILES strings stand for the structures.

Data set [1] has as its system present invention protein (A18). Put plainly: Detection of the ability to convert compound (II) to compound (III), E. coli pKSN646BF extract. In kind it is in vitro ADME, Streptomyces achromogenes IFO 12735. Conditions: 3 ppm of compound (II) labeled with 14C, components A, B, 10 minutes at 30° C. Here is the method: (§1) Reaction solutions of 30 μl were prepared and maintained for 10 minutes at 30° C. The reaction solutions consisted of a 0.1M potassium phosphate buffer (pH7.0) containing 3 ppm of compound (II) labeled with ^14C, 2 mM of β-NADPH (hereinafter, referred to as “component A”) (Oriental Yeast Company), 2 mg/ml of a ferredoxin derived from spinach (hereinafter referred to as “component B”) (Sigma Company), 0.1 U/ml of ferredoxin reductase (hereinafter, referred to as “component C”) (Sigma Company) and 23 μl of the supernatant fraction recovered in Example 32(2). Similarly to Example 4(3), the reaction solutions after the maintenance were extracted with ethyl acetate and the extracted layers were TLC analyzed. […] A spot corresponding to compound (III) was detected from the reaction solution containing E. coli pKSN849AF extract. In contrast, such a spot was not detected from the reaction solution containing E. coli pKSN2 extract.
Similarly to Example 32(3), reaction solutions of 30 μl were prepared and maintained for 10 minutes at 30° C. […] The reaction solutions after the maintenance were extracted with ethyl acetate and the extracted layers were TLC analyzed. […] A spot corresponding to compound (III) was detected from the reaction solution containing E. coli pKSN646BF extract. In contrast, such a spot was not detected from the reaction solution containing E. coli pKSN2 extract.

The next data set deals with Blackgrass. The data set can be described thus: Herbicidal activity test, soil surface treatment. Particulars: 500 g/ha, sprayed onto the surface of the soil after seeding, investigated after 19 days in a greenhouse. The class given is in vivo, Alopercurus myosuroides. More on the design: key: 0: situations in which the condition of sprouting or vegetation at the time of examination of the plant utilized for the test was compared with and showed totally or substantially no difference with that of the untreated application; 10: situations in which the plant completely withered or the sprouting or vegetation was completely suppressed. The method, then:
Soil was packed into a round plastic pot having a diameter of 10 cm and depth of 10 cm. Barnyardgrass, Blackgrass, Ivyleaf morningglory were seeded. Five (5) parts of the test compound, 6 parts of sorpol3005X (Toho Chemical Company) and 89 parts of xylene were well mixed to produce an emulsion. A certain amount thereof was diluted with water containing 0.1% (v/v) of a sticking agent at a proportion of 1000 L for 1 hectare and was spread uniformly with a spray-gun onto the surface of the soil. After cultivating the plants for 19 days in a greenhouse, the herbicidal activity was investigated.
In the above Tables 3 and 4, the strength of the herbicidal activity is shown stepwise as 0, 1, 2, 3, 4, 5, 6, 7, 8, 9, and 10.

Data set [2] relates to present invention protein (A17). The data set can be described thus: Detection of the ability to convert compound (II) to compound (III), E. coli pKSN608F extract. The class given is in vitro ADME, Streptomyces griseus ATCC 10137. Conditions: 3 ppm of compound (II) labeled with 14C, components A, B, 10 minutes at 30° C. The method, then: as §1
Similarly to Example 32(3), reaction solutions of 30 μl were prepared and maintained for 10 minutes at 30° C. […] The reaction solutions after the maintenance were extracted with ethyl acetate and the extracted layers were TLC analyzed. […] A spot corresponding to compound (III) was detected from the reaction solution containing E. coli pKSN608F extract. In contrast, such a spot was not detected from the reaction solution containing E. coli pKSN2 extract.

In data set [3] the test system is present invention protein (A15). Put plainly: Detection of the ability to convert compound (II) to compound (III), E. coli pKSN1555AF extract. The class given is in vitro ADME, Streptomyces olivochromogenes IFO 12444. Particulars: 3 ppm of compound (II) labeled with 14C, components A, B, 10 minutes at 30° C. Here is the method: as §1
Reaction solutions of 30 μl were prepared and maintained for 10 minutes at 30° C. […] The reaction solutions after the maintenance were extracted with ethyl acetate and the extracted layers were TLC analyzed. […] A spot corresponding to compound (III) was detected from the reaction solution containing E. coli pKSN1555AF extract. In contrast, such a spot was not detected from the reaction solution containing E. coli pKSN2 extract.

On to `C[C@@H](Oc1cc(-n2c(=O)cc(C(F)(F)F)n(C)c2=O)c(F)cc1Cl)C(=O)O` [compound (II)], for which the “spot corresponding to compound (III) labeled with 14C (TLC)” value in data set [1], in data set [2] and in data set [3] was “detected” throughout. For the same compound, the “Herbicidal Activity Blackgrass” value in the data set on Blackgrass is 10.
